The text below walks through data of patent US20050165085A1, “Polymorphic forms of tegaserod base and salts thereof” (priority 2003, published 2005).

Data set [1] is described as follows: Heating of tegaserod maleate polymorphic forms, form after heating. The conditions noted are these: for Polymorphic transformation / thermal stability upon heating: statement in text, temperature not given. It is filed as physicochemical. The text has this: X-Ray powder diffraction data were obtained using by method known in the art using a SCINTAG powder X-Ray diffractometer model X'TRA equipped with a solid state detector. Copper radiation of 1.5418 Å was used. A round aluminum sample holder with zero background was used. All peak positions are within ±0.2 degrees two theta.

For data set [2] the following is noted: Physician's Desk Reference, 57th Ed., cited from earlier work.
Data set [3] can be described thus: Solubility of tegaserod acetate Form J compared with tegaserod base. The conditions noted are these: solvent not stated. It is filed as physicochemical.

“Also recorded” adds a separate entry of the source.

On to `CCCCCNC(=N)N/N=C/c1c[nH]c2ccc(OC)cc12.O=C(O)/C=C\C(=O)O` [Form A, Tegaserod maleate, reference compound], for which the “Polymorphic transformation / thermal stability upon heating” value in data set [1] was “exhibits thermal stability at higher temperatures”.

As for `CCCCCNC(=N)N/N=C/c1c[nH]c2ccc(OC)cc12.O=C(O)/C=C\C(=O)O` [Form B1, Tegaserod maleate], the “Polymorphic transformation upon heating, assumed from DSC curves” value in data set [1] (assumed from DSC curves, all forms show the melting peak of Form A) is listed as “transform to Form A upon heating”.

For `CCCCCNC(=N)N/N=C/c1c[nH]c2ccc(OC)cc12.O=C(O)/C=C\C(=O)O` [Form B2, Tegaserod maleate], the “Polymorph form after heating” value in data set [1] (2 hr. at 80 deg.) is given as “B + C + A”; in data set [1] (2 hr. at 100 deg.), “B + C + A”; in data set [1] (2 hr. at 120 deg.) it was “C + A”; in data set [1] (2 hr. at 140 deg., listed as B2) it was “C + A”. Also, in data set [1], the “Polymorphic transformation / thermal stability upon heating” value was “transform to Form A upon heating”.

`CCCCCNC(=N)N/N=C/c1c[nH]c2ccc(OC)cc12.O=C(O)/C=C\C(=O)O` [Form B, Tegaserod maleate]: the “Polymorph form after heating” value in data set [1] (2 hr. at 100 deg., listed as B (wet)) is recorded as “B > C + A”; in data set [1] (2 hr. at 120 deg., listed as B (wet)), “A > C”. Moreover, the “Polymorphic transformation / thermal stability upon heating” value in data set [1] is recorded as “transform to Form C upon heating before it transforms to Form A”; in data set [1] (listed as B), “transform to Form A upon heating”.

As to `CCCCCNC(=N)N/N=C/c1c[nH]c2ccc(OC)cc12.O=C(O)/C=C\C(=O)O` [Form C, Tegaserod maleate], the “Polymorph form after heating” value in data set [1] (2 hr. at 140 deg., listed as C) is given as “C > A”. Also, the “Polymorphic transformation / thermal stability upon heating” value in data set [1] (listed as C) is “transform to Form A upon heating”.

As for `CCCCCNC(=N)N/N=C/c1c[nH]c2ccc(OC)cc12.O=C(O)/C=C\C(=O)O` [Form D, Tegaserod maleate], the “Polymorphic transformation / thermal stability upon heating” value in data set [1] is given as “transformation to Form A; also recorded: transforms to Form A upon heating”.

Turning to `CCCCCNC(=N)N/N=C/c1c[nH]c2ccc(OC)cc12.O=C(O)/C=C\C(=O)O` [tegaserod as the maleate salt, Tegaserod maleate], the Solubility in ethanol entry in data set [2] (ethanol) was “slightly soluble”. The Solubility in water entry in data set [2] (water) is on record as “very slightly soluble”.

Consider “Tegaserod acetate [Tegaserod acetate Form J]”, for which, in data set [3], the “Solubility relative to tegaserod base” value was “less soluble than tegaserod base”.
